Reference: patent US5693756A, “Amiloride-sensitive sodium channel and method of identifying substances which stimulate or block salty taste perception” (The Johns Hopkins University, priority 1995, dated 1997)

Key:
[1] = target: T1, αENAC (Rattus norvegicus, UniProt P37089); experiment: [3H]phenamil binding to membranes from HEK-293 cells transfected with native αENAC
T1 construct: alpha subunit transfected alone
T1 sequence (P37089 1-698): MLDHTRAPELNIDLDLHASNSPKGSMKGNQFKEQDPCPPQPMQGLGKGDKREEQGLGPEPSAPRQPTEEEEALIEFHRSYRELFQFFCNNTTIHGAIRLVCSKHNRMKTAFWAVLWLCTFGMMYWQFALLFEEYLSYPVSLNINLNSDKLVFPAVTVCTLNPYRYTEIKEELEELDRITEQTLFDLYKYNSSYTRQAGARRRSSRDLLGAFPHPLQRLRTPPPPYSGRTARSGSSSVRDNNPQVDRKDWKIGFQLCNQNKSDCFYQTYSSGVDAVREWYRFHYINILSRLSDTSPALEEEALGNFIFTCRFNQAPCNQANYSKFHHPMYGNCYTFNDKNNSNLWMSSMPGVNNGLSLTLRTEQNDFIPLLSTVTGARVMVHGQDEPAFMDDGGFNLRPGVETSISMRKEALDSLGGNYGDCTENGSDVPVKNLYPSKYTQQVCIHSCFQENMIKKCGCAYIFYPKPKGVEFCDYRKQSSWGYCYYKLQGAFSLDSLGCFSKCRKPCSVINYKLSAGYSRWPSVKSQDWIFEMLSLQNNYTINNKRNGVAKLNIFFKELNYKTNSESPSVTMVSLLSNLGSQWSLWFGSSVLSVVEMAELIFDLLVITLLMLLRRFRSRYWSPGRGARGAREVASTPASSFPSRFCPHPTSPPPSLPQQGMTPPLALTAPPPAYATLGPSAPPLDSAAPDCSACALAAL
Description: (§1) Amiloride sensitive sodium channels have been extensively characterized in intact tissues by the binding of radioactive ligands. […] To limit variations in expression of individual clones, a pool of stably expressed cells (about 30 clones) that were mixed and propagated 3-4 times were used for the binding assay.
(§2) The full length cDNA of αENAC obtained by screening a rat taste cDNA library as described above (also described by Li et al., 1994, Proc. Natl. Acad. Sci. USA, 91:1814-1818, the disclosure of which is incorporated herein by reference) was cut with Not I and Xho I and inserted into an expression vector pcDNA-III (Invitrogen). The PCR product of the alternatively spliced form αENACa was cut with Bcl I to replace the corresponding region of native αENAC in pcDNA III. Thus the native form (αENAC) and an alternatively spliced form (αENACa) of the alpha subunit of ENAC in the expression vector was constructed for stable expression in HEK-293 cells. DNA (10 μg) was then transfected into HEK-293 cells by the calcium phosphate technique. Stable expression clones of cells were selected by exposure for 4-6 weeks to a medium containing 500 μg/ml G418.
(§3) Transfected HEK-293 cells were harvested in cold (4° C.) binding buffer containing 1 mM EDTA, 15 mM Tris-HCl (pH 7.7), 1 μM pepstain A, 0.1 μM aprotinin, 0.1 mM phenylmethylsulfonyl fluoride and 10 μM leupeptin. Cells were then homogenized, centrifuged and the pellet resuspended in the binding buffer at 1-2 mg/ml concentration. The reaction mixture (0.2 ml) containing [^3 H]phenamil ([…]) and 100 μg protein was incubated at 4° C. for 90 minutes and the reaction terminated by rapid filtration through Whatman GF/B glass fiber filters pretreated with 0.3% polyethyleneimine. Amiloride (Sigma) suspended in 50% dimethylformamide was used as a competitor in the binding assay. Proteins was assayed by a kit (Pierce) with bovine serum albumin as a standard.
(§4) [^3 H]phenamil binding in HEK-293 cells transfected with native αENAC or alternatively spliced αENACa are compared in FIGS. 9A and 9B. […]

[2] = target: T2, αENACa (Rattus norvegicus, UniProt P37089); experiment: [3H]phenamil binding to membranes from HEK-293 cells transfected with αENACa
T2 construct: expressed in transfected cells
T2 sequence (P37089 with tags, fused parts or gaps limits assumed): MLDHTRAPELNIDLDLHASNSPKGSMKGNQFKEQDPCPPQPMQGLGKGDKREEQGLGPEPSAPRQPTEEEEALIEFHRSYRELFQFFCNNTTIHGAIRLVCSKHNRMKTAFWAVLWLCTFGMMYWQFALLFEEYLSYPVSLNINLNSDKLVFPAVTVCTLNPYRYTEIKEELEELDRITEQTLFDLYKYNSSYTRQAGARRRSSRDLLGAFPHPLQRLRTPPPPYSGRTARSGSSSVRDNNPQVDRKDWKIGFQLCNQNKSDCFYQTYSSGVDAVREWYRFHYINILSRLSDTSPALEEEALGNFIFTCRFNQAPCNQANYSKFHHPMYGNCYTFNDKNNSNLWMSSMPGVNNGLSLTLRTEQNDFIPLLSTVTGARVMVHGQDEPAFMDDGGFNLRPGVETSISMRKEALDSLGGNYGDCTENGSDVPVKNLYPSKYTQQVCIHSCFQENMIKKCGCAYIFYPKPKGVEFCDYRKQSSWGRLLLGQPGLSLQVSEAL
Description: as §1, §2, §3, §4

[3] = target: T1, αENAC; experiment: Inhibition by amiloride of [3H]phenamil binding to membranes from HEK-293 cells transfected with native αENAC; conditions: 50 nM [3H]phenamil, 100 μg membrane protein, increasing concentrations of amiloride
Method: as §3
(§5) Membrane protein (100 μg) was incubated with 50 nM [^3 H]phenamil in the absence or presence of increasing concentrations of amiloride. Three independent experiments were performed in duplicate. Results are presented of a typical experiment with values varying less than 20%.

[4] = target: T2, αENACa; experiment: Inhibition by amiloride of [3H]phenamil binding to membranes from HEK-293 cells transfected with αENACa; conditions: 50 nM [3H]phenamil
Method: as §3, §5

| levels of [3H]phenamil binding, versus cells transfected only with the expression vector ([1]; HEK-293 cells transfected with native αENAC, 50 nM [3H]phenamil, 1 mM amiloride) | Bmax ([1]; saturation analysis, membranes of HEK-293 cells transfected with αENAC) [pmol/mg protein] | Kd ([1]; saturation analysis, membranes of HEK-293 cells transfected with αENAC, 4° C., 90 minutes) [nM] | specific [3H]phenamil binding, versus cells not transfected with the channel ([2]; HEK-293 cells transfected with αENACa, 50 nM [3H]phenamil, 1 mM amiloride) | Bmax ([2]; saturation analysis, membranes of HEK-293 cells transfected with αENACa) [pmol/mg protein] | Kd ([2]; saturation analysis, membranes of HEK-293 cells transfected with αENACa, 4° C., 90 minutes, read-out: apparent Kd) [nM] | Compound | inhibition of [3H]phenamil binding [3] | inhibition of [3H]phenamil binding ([4]; 100 μg membrane protein, increasing concentrations of amiloride, αENACa) | potency in competing for [3H]phenamil binding, αENACa transfected cells relative to native channel ([4]; αENACa versus native αENAC) |
| --- | --- | --- | --- | --- | --- | --- | --- | --- | --- |
| not significantly greater | 18 | 270 | doubling | 28 | 260 | NC(=Nc1ccccc1)NC(=O)c1nc(Cl)c(N)nc1N [[^3 H]phenamil, phenamil] | – | – | – |
| – | – | – | – | – | – | N=C(N)NC(=O)c1nc(Cl)c(N)nc1N [amiloride, N-amidino-3,5-diamino-6-chloropyrazine carboxamide] | inhibited | inhibited | about 10 times |
